Each compound was assayed against T1, Acetylcholinesterase (AChE) (Electrophorus electricus, UniProt O42275) (assay: In vitro anti-acetylcholinesterase assay (Ellman's method)). Conditions: read-out: AChE Inhibition (IC50).
T1 construct: purchased Sigma Aldrich type VI-S
Assay type: biochemical
From the text: In vitro enzyme assay reagents were purchased as previously described. Acetylcholinesterase (AChE) from Electrophorus electricus type VI-S lyophilized powder (137 units/mg) was acquired from Sigma Aldrich (St. Louis, MO, USA). Substrate acetylthiocholine iodide (ATCl) and sodium phosphate monobasic and dibasic anhydrous used for buffer preparation were obtained from Wako Pure Chemical (Osaka, Japan). Coloring reagent 5,5′-dithio-bis-(2-nitrobenzoic acid) (DTNB) was acquired from Nacalai Tesque (Kyoto, Japan). […] All other reagents acquired from commercial sources were of analytical grade.
The plant fractions and isolated compounds were evaluated for their anti-AChE potential in triplicate based on the Ellman’s method described previously.

T1 sequence (O42275 24-633): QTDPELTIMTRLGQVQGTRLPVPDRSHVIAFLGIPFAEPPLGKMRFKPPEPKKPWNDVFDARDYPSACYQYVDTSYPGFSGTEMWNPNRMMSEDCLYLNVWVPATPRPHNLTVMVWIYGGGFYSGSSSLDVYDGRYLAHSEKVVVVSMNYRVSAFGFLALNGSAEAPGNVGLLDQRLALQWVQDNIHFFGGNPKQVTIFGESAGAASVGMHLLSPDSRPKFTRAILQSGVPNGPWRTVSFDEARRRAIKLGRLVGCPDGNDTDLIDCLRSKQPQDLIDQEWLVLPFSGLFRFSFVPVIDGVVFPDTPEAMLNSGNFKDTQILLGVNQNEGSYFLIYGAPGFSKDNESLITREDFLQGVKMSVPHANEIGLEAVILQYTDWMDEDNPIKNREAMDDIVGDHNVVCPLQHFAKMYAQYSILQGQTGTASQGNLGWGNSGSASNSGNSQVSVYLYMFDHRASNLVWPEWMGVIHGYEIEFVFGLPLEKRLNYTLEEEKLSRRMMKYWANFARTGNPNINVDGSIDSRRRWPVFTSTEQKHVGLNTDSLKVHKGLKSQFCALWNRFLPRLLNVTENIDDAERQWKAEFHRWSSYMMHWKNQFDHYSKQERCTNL

Compared with `CC(C)=CCC/C(C)=C/Cc1c(C2CC(=O)c3c(O)cc(O)c(CC=C(C)C)c3O2)ccc(O)c1O` (centres unmarked) [Compound 1, solophenol A], `CC(C)=CCC/C(C)=C/Cc1c([C@@H]2CC(=O)c3c(O)cc(O)cc3O2)ccc(O)c1O` [Compound 2, nymphaeol B] is 33-fold higher in IC50: 1 µM for the first, 33 µM for the second. The first is the more potent here.

Compared with `CC(C)=CCCC(C)=CCc1c(O)cc2c(c1O)C(=O)CC(c1cc(O)cc(O)c1)O2` (centres unmarked) [Compound 3, schizolaenone C], `CC/C=C\C/C=C\C/C=C\CCCCCCCc1cccc(O)c1C(=O)O` [Compound 4, 6-heptadeca-8Z,11Z,14Z-trienyl salicylic acid] is 2.8-fold lower in IC50: 6.8 µM for the first, 2.4 µM for the second.

Work on `CCCC/C=C\C/C=C\CCCCCCCCc1cccc(O)c1C(=O)O` [Compound 5, 6-heptadeca-9Z,12Z-dienyl salicylic acid] yielded an IC50 of 0.54 µM.

— paper PMC9102781 (Molecules, 2022)
